From patent publication US12474342B2, “Methods for treating cancer and the use of biomarkers as a predictor of clinical sensitivity to therapies” (CELGENE CORPORATION, priority 2016, dated 2025)

How the values were obtained:
[1] = system: nontumorigenic human hepatocellular cell line THLE-2; experiment: Anti-proliferation, THLE-2; format: cell-based; settings: THLE-2 (data not shown)
DDIT3 (CHOP) = DDIT3 (CHOP) mRNA, quantitative PCR, KG-1; format: cell-based, human; settings: KG-1, 100 nM Compound D or greater
Protocol: Compound D regulates UPR stress RNAs, ATF3 and CHOP, and nonsense-mediated decay (NMD) RNAs, SRSF3 and SRSF6, in KG-1 cells in both dose- and time-dependent manners. KG-1 cells were plated in 10 cm^2 dishes and incubated overnight. The following day, KG-1 cells were treated with a 6-point dose response (0, 3, 10, 30, 100, 300 nM) of Compound D and incubated for 2, 4, 8, and 20 hours. Cells were removed from dishes and cell pellets were prepared for RNA isolation (Qiagen RNA isolation kit). Total RNA was quantitated using NanoDrop spectrophotometer and cDNA was reversely transcribed using 1 μg total RNA. Quantitative PCR was performed in replicates for each sample using primer sets for ATF3, CHOP, and both NMD and normal transcripts of SRSF3 and SRSF6. Data was doubly normalized to the 18S housekeeping gene and 2 hour DMSO control. Normalized RNA expression (y-axis) versus drug concentration in nM (x-axis) for each time point was plotted. SRSF3-1 NMD and SRSF6-1 NMD depict amplification of NMD transcript for SRSF3 and SRSF6, respectively. SRSF3-3 Normal and SRSF6-3 Normal depict amplification of normal transcript for SRSF3 and SRSF6 genes, respectively. […] FIGS. 29A-29F show effects of Compound D treatment on UPR and NMD pathways in KG-1 cells. […] Additionally, 100 nM Compound D or greater induced the mRNA levels of ATF3 and DDIT3 (CHOP) approximately 100-fold and 10-fold, respectively. […]

ATF3 and DDIT3 mRNA [2] = experiment: ATF3 and DDIT3 mRNA induction, HNT-34; format: cell-based, human
From the text: (§1) The kinetics of induction of mRNA for UPR factors ATF3 and DDIT3 in HNT-34 cells also strongly differed from that in PBMCs. […] This is also consistent with the reduced cytotoxicity observed for Compound D in normal adult lymphocytes as compared with tumor cells (data not shown).

KG-1a cells = experiment: Anti-proliferation 72-hour CTG assay, KG-1a; format: cell-based; settings: Homo sapiens, read-out: IC50 of the anti-proliferative effect
Protocol: (§2) A plethora of AML cell lines were treated with serial dilutions of Compound D. IC50 value of the anti-proliferation effect of Compound D (as determined in 72-hour CTG assays) in each cell line is summarized in Table 1.

GSPT1 [3] = biological target: T1, GSPT1 (Homo sapiens, UniProt P15170+Q96SW2); experiment: GSPT1 protein reduction, western analysis, normal PBMCs
Protocol: PBMC were treated with 1 nM, 10 nM, 100 nM, or 1000 nM of Compound D or Compound E for 20 hours.

ATF3 and DDIT3 mRNA [4] = experiment: ATF3 and DDIT3 mRNA induction, healthy PBMCs; format: cell-based, human; settings: by 8 hours
From the text: as §1

MOLM-13 cells = experiment: Anti-proliferation CTG assay, MOLM-13; format: cell-based, human
Protocol: as §2
(§3) The effect of overexpression of GSPT1 on the anti-proliferative effect of Compound D and Compound E was determined in human histiocytic lymphoma cell line U937 and human leukemia cell line MOLM13. Treatment compounds (e.g., Compound D or Compound E) were titrated from 0.001 μM to 10 μM. Cell proliferation was measured by CellTiter-Glo cell viability assay at 48 hours after treatment. […] However, when exogenous GSPT1 was overproduced via the EF1α promoter, as shown in FIGS. 5A-5D, the anti-proliferative effect of Compound D and Compound E reduced.

KASUMI-1 cells = experiment: Anti-proliferation 72-hour CTG assay, KASUMI-1; format: cell-based; settings: Homo sapiens; KASUMI-1, 72-hour CTG assay; read-out: IC50 of the anti-proliferative effect
Protocol: as §2

ATF3 = ATF3 protein induction, western blot, HNT-34; format: cell-based, human; settings: HNT-34, 10 nM Compound D
Protocol: The time course of GSPT1 degradation was monitored by western blot analysis of HNT-34 AML cells and normal PBMCs (FIGS. 32A-32D) following incubation with Compound D (1, 10, and 100 nM).

GSPT1 [5] = biological target: T1, GSPT1; experiment: GSPT1 protein reduction, western analysis, HNT-34; format: cell-based; set-up: reduction in GSPT1 protein level was evaluated in human normal PBMCs; endogenous in cells; host or cells: primary PBMCs from normal donors (ID 4328, 4379) and AML patients (ID 11SH, 09P6); settings: HNT-34, 10 nM Compound D
Protocol: The time course of the reduction in GSPT1 by Compound D also was studied for up to 48 hours. The progressive degradation of GSPT1 over the course of 1 to 20 hours was evident in the presence of all concentrations of Compound D studied from 3 to 300 nM in HNT-34, HL-60, and ML-2 cells, with little GSPT1 remaining by 20 hours at 100 or 300 nM Compound D in HNT-34 or HL-60 cells (FIG. 34 and FIG. 35C). Time-dependent reduction in GSPT1 was also observed in KG-1 and OCI-AML2 cells at 3 to 1000 nM Compound D, with little GSPT1 remaining in KG-1 cells at 100 to 300 nM at 24 hours or in OCI-AML2 cells at 300 and 1000 nM at 24 hours (FIG. 35D). Loss of GSPT1 occurred more slowly in Kasumi-1, AML-193, and […] cells. […] A positive association (r^2=0.50; […]

U-937 cells = experiment: Anti-proliferation CTG assay, U-937; format: cell-based, human
Protocol: as §2, §3

NB-4 cells = experiment: Anti-proliferation 72-hour CTG assay, NB-4; format: cell-based; settings: Homo sapiens; NB-4, 72-hour CTG assay; read-out: IC50 of the anti-proliferative effect
Protocol: as §2

T1 sequence (P15170 1-637 isoform P15170-3): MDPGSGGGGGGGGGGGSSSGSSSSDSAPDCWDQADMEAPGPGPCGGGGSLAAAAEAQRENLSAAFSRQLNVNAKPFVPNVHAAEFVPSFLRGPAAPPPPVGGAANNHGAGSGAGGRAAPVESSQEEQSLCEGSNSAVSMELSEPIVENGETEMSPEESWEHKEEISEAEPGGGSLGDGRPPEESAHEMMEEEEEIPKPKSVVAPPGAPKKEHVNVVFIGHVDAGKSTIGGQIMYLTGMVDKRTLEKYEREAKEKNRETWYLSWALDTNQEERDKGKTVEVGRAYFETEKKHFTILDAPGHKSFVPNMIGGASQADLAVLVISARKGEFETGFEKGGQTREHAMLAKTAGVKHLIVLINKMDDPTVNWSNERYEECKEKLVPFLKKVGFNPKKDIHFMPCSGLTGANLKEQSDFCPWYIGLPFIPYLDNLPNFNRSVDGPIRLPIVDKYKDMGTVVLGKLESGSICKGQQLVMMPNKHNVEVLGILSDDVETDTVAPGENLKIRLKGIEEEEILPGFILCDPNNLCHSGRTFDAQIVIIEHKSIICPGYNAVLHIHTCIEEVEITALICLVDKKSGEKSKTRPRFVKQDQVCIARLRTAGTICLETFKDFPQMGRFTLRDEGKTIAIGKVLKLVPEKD
T1 sequence (Q96SW2 whole entry): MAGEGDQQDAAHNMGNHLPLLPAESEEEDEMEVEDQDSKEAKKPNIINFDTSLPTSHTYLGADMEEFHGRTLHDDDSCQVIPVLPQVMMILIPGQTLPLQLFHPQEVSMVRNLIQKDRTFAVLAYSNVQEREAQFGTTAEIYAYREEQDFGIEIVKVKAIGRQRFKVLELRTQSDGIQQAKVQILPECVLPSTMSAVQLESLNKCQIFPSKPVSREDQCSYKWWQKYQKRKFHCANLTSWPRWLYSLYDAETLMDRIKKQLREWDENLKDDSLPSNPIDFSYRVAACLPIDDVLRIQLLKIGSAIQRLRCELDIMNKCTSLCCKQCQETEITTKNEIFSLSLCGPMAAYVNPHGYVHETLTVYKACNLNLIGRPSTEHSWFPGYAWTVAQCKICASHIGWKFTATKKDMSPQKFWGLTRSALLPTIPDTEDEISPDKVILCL
T1 sequence (Q16531 whole entry partner): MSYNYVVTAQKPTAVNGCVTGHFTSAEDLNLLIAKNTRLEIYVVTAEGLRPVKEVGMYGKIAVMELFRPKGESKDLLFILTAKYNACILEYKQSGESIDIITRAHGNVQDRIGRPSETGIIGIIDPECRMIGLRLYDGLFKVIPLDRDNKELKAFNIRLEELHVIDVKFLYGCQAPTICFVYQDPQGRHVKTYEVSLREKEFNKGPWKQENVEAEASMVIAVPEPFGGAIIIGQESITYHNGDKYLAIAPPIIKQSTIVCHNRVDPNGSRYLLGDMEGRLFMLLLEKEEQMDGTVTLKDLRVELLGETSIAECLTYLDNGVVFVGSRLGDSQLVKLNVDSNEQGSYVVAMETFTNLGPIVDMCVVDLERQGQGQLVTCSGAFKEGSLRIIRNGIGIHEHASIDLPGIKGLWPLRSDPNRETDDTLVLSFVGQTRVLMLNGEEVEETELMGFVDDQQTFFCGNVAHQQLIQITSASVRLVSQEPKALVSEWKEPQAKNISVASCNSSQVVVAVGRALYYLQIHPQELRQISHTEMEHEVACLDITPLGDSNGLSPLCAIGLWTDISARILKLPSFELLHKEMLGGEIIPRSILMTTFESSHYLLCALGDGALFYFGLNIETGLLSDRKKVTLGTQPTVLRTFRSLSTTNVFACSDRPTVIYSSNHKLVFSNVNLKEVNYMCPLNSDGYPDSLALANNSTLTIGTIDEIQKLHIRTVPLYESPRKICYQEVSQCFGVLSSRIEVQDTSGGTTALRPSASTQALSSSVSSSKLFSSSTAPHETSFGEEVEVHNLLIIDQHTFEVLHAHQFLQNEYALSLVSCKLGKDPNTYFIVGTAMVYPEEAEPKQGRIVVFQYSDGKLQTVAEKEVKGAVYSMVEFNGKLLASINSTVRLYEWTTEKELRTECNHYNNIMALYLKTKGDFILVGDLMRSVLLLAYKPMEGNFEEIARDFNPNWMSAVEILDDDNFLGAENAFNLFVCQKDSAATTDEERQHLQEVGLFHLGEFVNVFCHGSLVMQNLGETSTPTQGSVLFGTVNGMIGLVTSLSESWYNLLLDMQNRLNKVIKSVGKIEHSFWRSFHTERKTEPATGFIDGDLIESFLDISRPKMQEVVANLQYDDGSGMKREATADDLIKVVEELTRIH

Question: For `O=C1CCC(N2Cc3cc(CNC(=O)C(F)(F)c4ccc(Cl)cc4)ccc3C2=O)C(=O)N1` (stereo not drawn) [Compound D, 2-(4-chlorophenyl)-N-((2-(2,6-dioxopiperidin-3-yl)-1-oxoisoindolin-5-yl)methyl)-2,2-difluoroacetamide], which IC50 [1] is on record?
Answer: ~10000 nM

Question: And the “induction of DDIT3 (CHOP) mRNA level” value (DDIT3 (CHOP))?
Answer: ~10 fold

Question: And the “time of induction of ATF3 and DDIT3 mRNA” value (ATF3 and DDIT3 mRNA [2])?
Answer: ≤ 8 h

Question: And the IC50 (KG-1a cells)?
Answer: 21 nM

Question: What about the “Reduction in GSPT1 Protein Level” value (GSPT1 [3]; PBMC sample 4328 (normal), 100 nM Compound D, 8 hours) of the same molecule?
Answer: 67%

Question: And the “Reduction in GSPT1 Protein Level” value (GSPT1 [3]; PBMC sample 4328 (normal), 100 nM Compound D, 22 hours)?
Answer: 92%

Question: What about the “Reduction in GSPT1 Protein Level” value (GSPT1 [3]; PBMC sample 4328 (normal), 300 nM Compound D, 8 hours) of the same molecule?
Answer: 80%

Question: And the “Reduction in GSPT1 Protein Level” value (GSPT1 [3]; PBMC sample 4328 (normal), 300 nM Compound D, 22 hours)?
Answer: 98%

Question: And the “Reduction in GSPT1 Protein Level” value (GSPT1 [3]; PBMC sample 4379 (normal), 100 nM Compound D, 8 hours)?
Answer: 39%

Question: And the “Reduction in GSPT1 Protein Level” value (GSPT1 [3]; PBMC sample 4379 (normal), 100 nM Compound D, 22 hours)?
Answer: 73%

Question: And the “Reduction in GSPT1 Protein Level” value (GSPT1 [3]; PBMC sample 4379 (normal), 300 nM Compound D, 8 hours)?
Answer: 58%

Question: And the “Reduction in GSPT1 Protein Level” value (GSPT1 [3]; PBMC sample 4379 (normal), 300 nM Compound D, 22 hours)?
Answer: 83%

Question: What about the “time at which GSPT1 degradation was evident” value (GSPT1 [3]; healthy PBMCs, 10 nM Compound D) of the same molecule?
Answer: 4 h

Question: And the “induction of ATF3 or DDIT3 mRNA” value (ATF3 and DDIT3 mRNA [4])?
Answer: no induction

Question: What about the IC50 (MOLM-13 cells; Homo sapiens, MOLM-13, 72-hour CTG assay, read-out: IC50 of the anti-proliferative effect) of the same molecule?
Answer: 75 nM

Question: What about the anti-proliferative effect (MOLM-13 cells; MOLM13 CRBN -/- cells, 48 hours) of the same molecule?
Answer: completely abolished

Question: What about the “cell proliferation (CellTiter-Glo)” value (MOLM-13 cells; MOLM13 parental cells, 0.001 μM to 10 μM, 48 hours) of the same molecule?
Answer: inhibited cell proliferation

Question: What about the IC50 (KASUMI-1 cells) of the same molecule?
Answer: 21 nM

Question: And the “time of induction of ATF3 protein” value (ATF3)?
Answer: 12 h

Question: And the “time at which GSPT1 degradation was evident” value (GSPT1 [5])?
Answer: ≤ 2 h

Question: What about the IC50 (U-937 cells; Homo sapiens, U-937, 72-hour CTG assay, read-out: IC50 of the anti-proliferative effect) of the same molecule?
Answer: 74 nM

Question: And the anti-proliferative effect (U-937 cells; U937 CRBN -/- cells, 48 hours)?
Answer: completely abolished

Question: And the “cell proliferation (CellTiter-Glo)” value (U-937 cells; U937 parental cells, 0.001 μM to 10 μM, 48 hours)?
Answer: inhibited cell proliferation

Question: And the IC50 (NB-4 cells)?
Answer: 17 nM
